Converted amounts (≈) assume the structure as drawn.
Assays:
[1] = Cytotoxicity against human SW1573 cells assessed as growth inhibition after 48 hrs by SRB assay; type: functional; details: SW1573, 48 h
Enterococcus faecalis = assay: Antibacterial activity against Enterococcus faecalis ATCC 29212 at 50 uM after 24 hrs by UV/Vis spectrophotometer relative to control; type: functional; details: ATCC 29212, 24 h
Staphylococcus aureus [2] = assay: Antibacterial activity against Staphylococcus aureus ATCC 25923 at 50 uM after 24 hrs by UV/Vis spectrophotometer relative to control; type: functional; details: ATCC 25923, 24 h
Escherichia coli = assay: Antibacterial activity against Escherichia coli ATCC 25922 at 50 uM after 24 hrs by UV/Vis spectrophotometer relative to control; type: functional; details: ATCC 25922, 24 h
[3] = Cytotoxicity against human HBL100 cells assessed as growth inhibition after 48 hrs by SRB assay; type: functional; details: HBL-100, 48 h
Candida albicans [4] = assay: Antifungal activity against Candida albicans ATCC 90028 at 50 uM after 48 hrs by UV/Vis spectrophotometer relative to control; type: functional; details: ATCC 90028, 48 h
[5] = Cytotoxicity against human HeLa cells assessed as growth inhibition after 48 hrs by SRB assay; type: functional
[6] = Cytotoxicity against human WiDr cells assessed as growth inhibition after 48 hrs by SRB assay; type: functional
[7] = Cytotoxicity against telomerase-immortalized human BJ cells assessed as growth inhibition after 48 hrs by SRB assay; type: toxicity, cell-based
Staphylococcus aureus [8] = assay: Antibacterial activity against Staphylococcus aureus ATCC 25923 by broth microdilution method; type: functional
Candida albicans [9] = assay: Antifungal activity against Candida albicans ATCC 90028 by broth microdilution method; type: functional
[10] = Ratio of MIC50 for Staphylococcus aureus ATCC 25923 to GI50 for human HeLa cells; type: functional
[11] = Ratio of MIC50 for Staphylococcus aureus ATCC 25923 to GI50 for human HBL100 cells; type: functional, HBL-100
[12] = Ratio of MIC50 for Staphylococcus aureus ATCC 25923 to GI50 for human WiDr cells; type: functional
[13] = Ratio of MIC50 for Staphylococcus aureus ATCC 25923 to GI50 for human SW1573 cells; type: functional

MIC50 (Staphylococcus aureus [8])	MIC90 (Staphylococcus aureus [8])	MIC90 (Candida albicans [9])	MIC50 (Candida albicans [9]) [µg/mL]	Compound	GI50 [1] [µM]	inhibition at 50 µM (Enterococcus faecalis) [%]	inhibition at 50 µM (Staphylococcus aureus [2]) [%]	inhibition at 50 µM (Escherichia coli) [%]	GI50 [3] [µM]	inhibition at 50 µM (Candida albicans [4]) [%]	GI50 [5] [µM]	GI50 [6] [µM]	GI50 at 48 h [7] [µM]	Ratio [10]	Ratio [11]	Ratio [12]	Ratio [13]
				O=C(CCCCC1CCCCC1)OCC1COCCOCCOCCO1 (stereo unspecified)	> 100	0	0	4.9	> 100	0	> 100	> 100					
				CC1(C(=O)OCC2COCCOCCOCCOCCOCCO2)c2ccccc2-c2ccccc21 (stereo unspecified)	8.8	0	0	0.1	11	0	12	12	18				
6.8 µg/mL	25 µM			O=C(OCC1COCCOCCOCCOCCOCCO1)c1cccc(-c2ccc(Br)cc2)c1 (stereo unspecified)	4.4	0	98	6.5	6.4	1	7.8	6.2	8.2				
		36 µM		O=C(CCCCCCCCCCOc1ccccc1)OCC1COCCOCCOCCOCCOCCO1 (stereo unspecified)	24	2.1	29	0	20	101	41	66	24				
				O=C(CCCCC1CCCCC1)OCC1COCCOCCOCCOCCO1 (stereo unspecified)	> 100	0	0	3.1	> 100	0	> 100	> 100					
				COc1cc([C@@H]2c3cc4c(cc3[C@@H](O[C@@H]3O[C@@H]5CO[C@@H](C)O[C@H]5[C@H](O)[C@H]3O)[C@H]3COC(=O)[C@H]23)OCO4)cc(OC)c1O [ETOPOSIDE]	15				1.4		3.3	23					
				O=C(OCC1COCCOCCOCCOCCOCCO1)c1cccnc1 (stereo unspecified)	> 100	6.8	0	6.2	> 100	24	> 100	> 100					
				O=C(CCCCCc1ccccc1)OCC1COCCOCCOCCOCCOCCO1 (stereo unspecified)	78	0	0	5.8	64	11	79	> 100					
				O=C(Cc1cccc(OCc2ccccc2)c1)OCC1COCCOCCOCCOCCOCCO1 (stereo unspecified)	36	0	0	3.6	29	0	35	24	22				
				CC(=O)OCC1COCCOCCOCCOCCOCCO1 (stereo unspecified)	> 100				> 100		> 100	> 100					
				CC(C)=CC1C(C(=O)OCC2COCCOCCOCCOCCOCCO2)C1(C)C (stereo unspecified)	54	0	0	0	40	0	63	56	> 100				
				O=C(/C=C/c1ccccc1)OCC1COCCOCCOCCOCCOCCO1 (stereo unspecified)	48	3.3	3.4	5.9	57	36.7	48	> 100					
				CC/C=C/CC(=O)OCC1COCCOCCOCCOCCOCCO1 (stereo unspecified)	> 100	4.7	6.9	4.3	> 100	9.4	> 100	> 100					
				O=C(CCCc1cc2ccccc2[nH]1)OCC1COCCOCCOCCOCCOCCO1 (stereo unspecified)	> 100				> 100		> 100	> 100					
				O=C(CCCCC1CCCCC1)OCC1COCCOCCOCCOCCOCCO1 (stereo unspecified)	51	0	61	0	72	0	71	33					
				O=C(CCCCOc1ccccc1)OCC1COCCOCCOCCOCCOCCO1 (stereo unspecified)	> 100	3.5	0	8.1	> 100	1.6	> 100	> 100					
				COc1ccc(/C=C/C(=O)OCC2COCCOCCOCCOCCOCCO2)cc1 (stereo unspecified)	54	0	0	7.3	50	0	56	56	> 100				
11.1 µg/mL	50 µM			O=C(OCC1COCCOCCOCCOCCOCCO1)c1c2ccccc2cc2ccccc12 (stereo unspecified)	3.8	0	98	7.8	5	4.3	3.7	5.6	5.4	4	4	4	4
7.2 µM	8.3 µM	42 µM	20.1 (≈ 36.5 µM)	O=C(CCc1ccc2ccc3cccc4ccc1c2c34)OCC1COCCOCCOCCOCCOCCO1 (stereo unspecified)	18	0	99	0	21	101	17	19	19				
				O=C(CCCCc1ccccc1)OCC1COCCOCCOCCOCCOCCO1 (stereo unspecified)	> 100	0.3	0	5	69	5.5	52	> 100					

Compound	MIC50 (Staphylococcus aureus [8])	MIC90 (Staphylococcus aureus [8])	MIC90 (Candida albicans [9])	MIC50 (Candida albicans [9]) [µg/mL]	GI50 [1] [µM]	inhibition at 50 µM (Enterococcus faecalis) [%]	inhibition at 50 µM (Staphylococcus aureus [2]) [%]	inhibition at 50 µM (Escherichia coli) [%]	GI50 [3] [µM]	inhibition at 50 µM (Candida albicans [4]) [%]	GI50 [5] [µM]	GI50 [6] [µM]	GI50 at 48 h [7] [µM]	Ratio [10]	Ratio [11]	Ratio [12]	Ratio [13]
C[C@@H]1[C@H](O)[C@@H](C)/C=C/C=C/C=C/C=C/C=C/C=C/C=C/[C@H](O[C@@H]2O[C@H](C)[C@@H](O)[C@H](N)[C@@H]2O)C[C@@H]2O[C@](O)(C[C@@H](O)C[C@@H](O)[C@H](O)CC[C@@H](O)C[C@@H](O)CC(=O)O[C@H]1C)C[C@H](O)[C@H]2C(=O)O [AMPHOTERICIN B]			0.5 µg/mL														
O=C(O)c1cn(C2CC2)c2cc(N3CCNCC3)c(F)cc2c1=O [CIPROFLOXACIN]		0.5 µg/mL															
